Test results reported in paper PMC3242765, “Inhibitors of Alphavirus Entry and Replication Identified with a Stable Chikungunya Replicon Cell Line and Virus-Based Assays” (PLoS ONE, 2011).
Structures can show the parent of a compound that is named as a salt.

Assays:
SFV-Rluc = conditions: for SFV replication % left: primary screening of chemical libraries, compounds tested at 50 µM
CHIKV replicon = assay: microbe, parasite or virus in culture; type: cell-based, Chikungunya virus (CHIKV)

SMILES | SFV replication % left (surviving fraction, remaining percentage of SFV replication) (SFV-Rluc) | CHIKV replicon % left (CHIKV replicon) | SFV replication % left (SFV-Rluc) | % left (remaining SFV replication) (SFV-Rluc; Supplementary Table 2, moderately active compounds (25 - 60% remaining), primary screen at 50 µM)
CCN1C(=O)CC(=O)N(CC)C1=S | 75.7% | 89.2% |  | 
CN(C)c1cccc2c(S(=O)(=O)Cl)cccc12 | 4.6% | 10.4% |  | 
Cc1c(C)c2c(c(C)c1O)CCC(C)(C(=O)O)O2 (stereo not drawn) | 76.9% | 101.5% |  | 
C=CC[C@]1(O)CC[C@H]2[C@@H]3CCC4=CCCC[C@@H]4[C@H]3CC[C@@]21C | 37.2% | 49.4% |  | 
CC(C)NCC(O)c1ccc(O)c(O)c1.Cl (stereo not drawn) | 112.5% | 99.3% |  | 
N[C@@H](Cc1ccc(O)c(O)c1)C(=O)O.N[C@@H](Cc1ccc(O)c(O)c1)C(=O)O | 43.6% | 54.8% |  | 
Cc1ccccc1OCC(O)CO (stereo not drawn) | 79.2% | 54.1% |  | 
CC(C)(CO)[C@@H](O)C(=O)NCCC(=O)[O-].CC(C)(CO)[C@@H](O)C(=O)NCCC(=O)[O-].O.[Ca+2] | 93.1% | 106.1% |  | 
C[C@H](C(=O)O)c1cccc(C(=O)c2ccccc2)c1.C[C@H](C(=O)O)c1cccc(C(=O)c2ccccc2)c1 |  | 99.6% |  | 
CC(C)(C)NCC(O)c1ccc(O)c(CO)c1.CC(C)(C)NCC(O)c1ccc(O)c(CO)c1.O=S(=O)(O)O (racemic) [(+/-) Salbutamol sulfate] | 105.0% | 71.9% |  | 
CC(C)NCC(O)c1ccc(O)c(O)c1.CC(C)NCC(O)c1ccc(O)c(O)c1.O=S(=O)(O)O (racemic) [(+/-)-Isoproterenol hemisulfate salt] | 110.9% | 105.1% |  | 
CC12CCC(CC1=O)C2(C)C (racemic) [DL-Camphon, Campher (synth.)] | 83.9% | 105.4% |  | 
O=C1c2c(O)cccc2Cc2cccc(O)c21 [1,8-Dihydroxyanthrone] | 27.2% | 40.9% |  | 
CCNCC(O)c1ccc(O)cc1 (stereo not drawn) [1-(4-Oxyphenyl)-1-oxy-2-ethylamonoethane] | 86.9% | 105.4% |  | 
CCCCNC(=O)NS(=O)(=O)c1ccc(N)cc1 [1-Butyl-3-sulfanilylurea [carbutamide]] | 83.9% | 67.5% |  | 
COc1ccccc1-c1cc(=O)c2ccc3ccccc3c2o1 [2'-Methoxy-a-naphthoflavone] | 45.8% | 81.0% |  | 
O=C(O)c1cccc(O)c1O [2,3-Dihydroxybenzoic acid] | 93.1% | 105.1% |  | 
O=C(O)c1ccc(O)cc1O [2,4-Dihydroxylbenzoic acid] | 32.1% | 29.5% |  | 
O=C(O)c1cc(O)ccc1O [2,5-Dihydroxybenzoic acid] | 127.8% | 83.7% |  | 
Cc1ccc(C)c(O)c1 [2,5-Dimethylphenol] | 84.6% | 100.5% |  | 
O=C(O)c1c(O)cccc1O [2,6-Dihydroxybenzoic acid] | 118.7% | 62.3% |  | 
CC(C(=O)O)c1cccc(C(=O)O)c1 (stereo not drawn) [2-(3-Carboxyphenyl)propionic acid] | 105.7% | 94.3% |  | 
CN(C)CCCN1c2ccccc2Sc2ccc(Cl)cc21 [Chlorpromazine hydrochloride] |  | 105.4% |  | 
CN1[C@@H]2CC[C@H]1C[C@@H](OC(=O)C(O)c1ccccc1)C2 (stereo partly drawn) [Homatropine hydrobromide] |  | 100.4% |  | 

SMILES | SFV replication % left (surviving fraction, remaining percentage of SFV replication) (SFV-Rluc) | CHIKV replicon % left (CHIKV replicon) | SFV replication % left (SFV-Rluc) | % left (remaining SFV replication) (SFV-Rluc; Supplementary Table 2, moderately active compounds (25 - 60% remaining), primary screen at 50 µM)
C=CCOc1ccccc1OCC(O)CNC(C)C.Cl (stereo not drawn) [PC-142] |  |  | 92.4% | 
CCCCC1C(=O)N(c2ccccc2)N(c2ccc(O)cc2)C1=O (stereo not drawn) [PC-143] |  |  | 84.8% | 
CCOc1ccc(NC(C)=O)cc1 [PC-150] | 71.8% |  |  | 
CCOc1ccc(NC(C)=O)cc1 [PC-151] | 80.6% |  |  | 
CCC1(c2ccccc2)C(=O)NC(=O)NC1=O [PC-153] | 58.6% |  |  | 
CCN(CC)CCNC(=O)c1ccc(N)cc1.Cl [PC-166] | 89.0% |  |  | 
CCN(CC)CCOC(=O)c1ccc(N)cc1.Cl [PC-167] | 105.4% |  |  | 
CC(CN1c2ccccc2Sc2ccccc21)N(C)C.Cl (stereo not drawn) [PC-169] | 48.8% |  |  | 
CC(C)[N+](C)(CCOC(=O)C1c2ccccc2Oc2ccccc21)C(C)C.[Br-] [PC-171] | 77.0% |  |  | 
CC(C)NCC(O)COc1cccc2ccccc12.Cl (stereo not drawn) [PC-174] | 74.0% |  |  | 
CC(Cc1ccc2c(c1)OCO2)NCC(O)c1ccc(O)c(O)c1.Cl (stereo not drawn) [PC-177] | 128.4% |  |  | 
Cc1ncc(CO)c(CO)c1O.Cl [PC-178] | 100.9% |  |  | 
COc1ccc(CN(CCN(C)C)c2ccccn2)cc1.O=C(O)/C=C\C(=O)O [PC-179] | 73.7% |  |  | 
Oc1cccc(O)c1 [PC-181] | 67.1% |  |  | 
Cc1cc2nc3c(=O)[nH]c(=O)nc-3n(C[C@H](O)[C@H](O)[C@H](O)CO)c2cc1C [PC-182] |  |  |  | 43.1%
O=C1NS(=O)(=O)c2ccccc21.[Na] [PC-183] | 105.0% |  |  | 
CC(C)(C)NCC(O)c1ccc(O)c(CO)c1.CC(C)(C)NCC(O)c1ccc(O)c(CO)c1.O=S(=O)(O)O (stereo not drawn) [PC-185] | 105.0% |  |  | 
CCC1(c2ccccc2)C(=O)N=C([O-])NC1=O.[Na+] (stereo not drawn) [PC-189] | 88.1% |  |  | 
CC(C)NCC(O)c1ccc(NS(C)(=O)=O)cc1.Cl (stereo not drawn) [PC-191] | 100.5% |  |  | 
N=C(N)NS(=O)(=O)c1ccc(N)cc1 [PC-196] | 63.5% |  |  | 
Cc1nnc(NS(=O)(=O)c2ccc(N)cc2)s1 [PC-200] | 100.4% |  |  | 
Cc1nnc(NS(=O)(=O)c2ccc(N)cc2)s1 [PC-203] | 89.6% |  |  | 
CCCCNc1ccc(C(=O)OCCN(C)C)cc1.Cl [PC-215] | 102.8% |  |  | 
CC(C)(C)NC[C@H](O)COc1nsnc1N1CCOCC1.O=C(O)/C=C\C(=O)O [PC-225] | 129.1% |  |  | 
